Measured values taken from US11091476B2, “Protein kinase inhibitors, preparation method and medical use thereof” (Gan & Lee Pharmaceuticals, priority 2015, dated 2021).

Experiments:
[1] = target: CDK1/CyclinA2 (Homo sapiens (Human), UniProt P06493); test: CDK kinase inhibitory activity, ADP-Glo Kinase Assay, CDK1/CyclinA2; assay type: biochemical
Procedure: (§1) Measurement of CDK kinase inhibitory activity of the compounds of this disclosure.
(§2) In vitro inhibitory effect of the compounds of the disclosure on CDK (CDK1, CDK4 and CDK6) kinase activity was tested by the following method.
(§3) 1.1 Instrument and Kit Information
(§4) 1.2 Experimental Preparation • 1.2.1 Preparation of Kinase Reaction Buffer I: The 5×Reaction Buffer A (Promega; V307A-C) provided in the kit was mixed and diluted with MILLI-Q® H2O and 0.1 M DTT (dithiothreitol) to give 4× kinase buffer, and then MILLI-Q® H2O was further added to finally formulate the solution into 1× Kinase buffer.
(§5) 1 μl of 10 mM standard substance stock solution was taken and added to 9 μl of kinase reaction buffer I and mixed well; then 90 μl of kinase reaction buffer I was added and mixed well; then 100 μl of kinase reaction buffer I was added and mixed well. The final concentration was 50 μM. • b. 40 μl of kinase reaction buffer II was added into B2 to B10 of a 96-well plate, and 50 μl of the above solution was added into B1; • c. 10 μl of solution was taken from well B1, added into B2, and mixed well; then 10 μl of the resulting solution was taken and added into B3, and dilution was carried out in sequence to B9, so as to obtain control solutions that are diluted by 5-fold sequentially. • (2) Preparation of test compound solution: • a. Test compound solutions at a certain concentration were taken, respectively, diluted with kinase reaction buffer I to a final concentration of 50 μM compound solution; • b. 40 μl of kinase reaction buffer II was added into H2 to H10 of the 96-well plate; and 50 μl of the above solution was added into H1; • c. 10 μl of solution was taken from well H1, added into H2, and mixed well; then 10 μl of the resulting solution was taken and added into H3, and dilution was carried out in sequence to H9, so as to obtain test compound solutions that are diluted by 5-fold sequentially. • 1.2.4 Preparation of a mixed solution of reaction substrate and ATP: • a. Preparation of ATP solution: • 200 μl of 0.1 mM ATP solution: 2 μl of 10 mM ATP was added to 198 μl of kinase reaction buffer I; • 300 μl of 50 μM ATP solution: 150 μl of kinase reaction buffer I was added to 150 μl of the above 0.1 mM ATP solution; • b. Preparation of 300 μl of reaction substrate solution: • 150 μl 1 μg/μl reaction substrate stock solution was added to 150 μl kinase reaction buffer I, and mixed well; • c. The above a/b solutions were mixed to obtain mixed solutions, respectively.
(§6) 1.3 Experimental process: • 1.3.1: 2 μl of compound solutions of various concentrations were taken, added to a 384-well plate, and centrifuged 3 minutes; • 1.3.2: 4 μl of kinase solution was added to each well, centrifuged at 5000 rpm and 18° C. for 10 minutes, and shaken on a plate shaker for 10 minutes; • 1.3.3: 4 μl of mixed solution of substrate and ATP was added to each well, centrifuged at 5000 rpm and 18° C. for 10 minutes, and shaken on a plate shaker at 37° C. for 90 minutes; • 1.3.4: The 384-well plate was taken out, and allowed to stand to room temperature; • 1.3.5: 10 μl of ADP-GLO™ reagent was added to each well, centrifuged at 5000 rpm and 18° C. for 18 minutes, and shaken on a plate shaker at 25° C. for 40 minutes, and then the reaction was stopped; • 1.3.6: 20 μl of kinase detection reagent was added to each well, centrifuged at 5000 rpm and 18° C. for 10 minutes, and shaken on a plate shaker at 25° C. for 30 minutes; and • 1.3.7: M1000pro MICROPLATE READER was used to read […] values.
(§7) The inhibition rate of each compound at each concentration point was calculated by the formula as follows and curve fitting was performed by GraphPad Prism 5 software to obtain the IC50 value.

[2] = target: CDK6/CyclinD3 (Homo sapiens (Human), UniProt Q00534); test: CDK kinase inhibitory activity, ADP-Glo Kinase Assay, CDK6/CyclinD3; assay type: biochemical
[3] = target: CDK9/CyclinD3 (Homo sapiens (Human), UniProt P50750); test: Kinase inhibitory activity, ADP-Glo Kinase Assay, CDK9/CyclinD3; assay type: biochemical
Procedure: as §3, §4, §5, §6, §7

[4] = target: Pim-1 (Homo sapiens (Human), UniProt P11309); test: Kinase inhibitory activity on Pim-1; assay type: biochemical
Procedure: as §4, §5, §6, §7

[5] = target: CDK4/CyclinE1 (Homo sapiens, UniProt P11802); details: read-out: CDK4/CyclinE1 IC50
Procedure: as §1, §2, §3, §4
The final concentration was 50 μM. • b. 40 μl of kinase reaction buffer II was added into B2 to B10 of a 96-well plate, and 50 μl of the above solution was added into B1; • c. […]
as §6, §7

CC1=Nc2c(F)cc(-c3nc(Nc4ccc(N5CCNCC5)cn4)ncc3F)cc2C12CCCC2 [Example 6, 5-fluoro-4-(7′-fluoro-2′-methylspiro[cyclopentane-1,3′-indol]-5′-yl)-N-(5-(piperazin-1-yl)pyridin-2-yl)pyrimidine-2-amino]
IC50 [1]: 152 nM
IC50 [2]: 6.45 nM
CDK1/CDK6 ([2]; ratio of IC50s, selectivity for CDK6 over CDK1): 23.59
CDK9/CDK6 ([2]; ratio of IC50s, selectivity for CDK6 over CDK9): 0.06
Pim-1/CDK6 ([2]; ratio of IC50s, selectivity for CDK6 over Pim-1): 2.33
IC50 [3]: 0.42 nM
IC50 [4]: 15.1 nM
IC50 [5]: 80.9 nM
